This note sets out measurements from PMC11606603, “The membrane domains of mammalian adenylyl cyclases are lipid receptors” (eLife, 2024).

Each structure is given as a SMILES string. “And” between values parts separate entries of the source, which are not always exact repeats. Equal entries are not always repeated.

Holding throughout (type): biochemical
The target in one assay is T1, mAC2 (Homo sapiens, UniProt Q08462).
T1 construct: Human mAC genes were from GenScript and fitted with a C-terminal FLAG-tag; FLAG (C); made in house; host or cells: HEK293, permanently transfected; membrane preparation
Briefly: AC assay, Gsα-stimulated mAC2 in membranes from transfected HEK293 cells. To be noted: Figure 5-figure supplement 1 left, 20 µM. The protocol:
(§1) hAC sequences were from NCBI were: ADCY1: NM_021116.3; ADCY2: NM_020546.2; ADCY3: NM_004036.4; ADCY4: NM_001198568.2; ADCY5: NM_183357.2; ADCY6: NM_015270.4; ADCY7: NM_001114.4; ADCY8: NM_001115.2; ADCY9: NM_001116.3. Human mAC genes were from GenScript and fitted with a C-terminal FLAG-tag. […] The gene was synthesized by GenScript. HEK293 cells were maintained in Dulbeccos Modified Eagle Medium (DMEM) with 10% fetal bovine serum at 37°C and 5% CO2. Transfection with AC plasmids was with PolyJet (SignaGen, Frederick, MD, USA). Permanent cell lines were generated by selection for 7 days with 600 µg/ml G418 and maintained with 300 µg/ml For membrane preparation, cells were tyrpsinized, collected by centrifugation (3000 × g, 5 min) and lysed and homogenized in 20 mM HEPES, pH 7.5, 1 mM Ethylenediaminetetraacetic acid (EDTA), 2 mM MgCl2, 1 mM Dithiothreitol (DTT), one tablet of cOmplete, EDTA-free (per 50 ml) and 250 mM sucrose by 20 strokes in a potter homogenizer on ice. Debris was removed (5 min at 1000 × g, 0°C), membranes were collected at 100,000 × g, 60 min at 0°C, suspended and stored at −80°C in 20 mM MOPS, pH 7.5, 0.5 mM EDTA, 2 mM MgCl2. […] Three cerebral cortices were dissected and homogenized in 4.5 ml cold 48 mM Tris–HCl, pH 7.4, 12 mM MgC1_2, and 0.1 mM Ethylene glycol-bis(β-aminoethyl ether)-N,N,N′,N′-tetraacetic acid (EGTA) with a Polytron hand disperser (Kinematica AG, Switzerland). […] The pellet was washed once with 5 ml 1 mM KHCO3. The final suspension in 2 ml 1 mM KHCO3 was stored in aliquots at −80°C.
(§2) In a volume of 10 μl, AC activities were measured using 1 mM ATP, 2 mM MgCl2, 3 mM creatine phosphate, 60 μg/ml creatine kinase, and 50 mM MOPS pH 7.5. The cAMP assay kit from Cisbio (Codolet, France) was used for detection according to the supplier’s instructions. For each assay, a cAMP standard curve was established. EC50 and IC50 values were calculated by GraphPad Prism version 8.4.3 for Windows, GraphPad Software, San Diego, CA, USA, https://www.graphpad.com .

In a further assay the target is T2, mAC3 (Homo sapiens, UniProt O60266).
T2 construct: Human mAC genes were from GenScript and fitted with a C-terminal FLAG-tag; FLAG (C); made in house; host or cells: HEK293, permanently transfected; membrane preparation
Nature of the assay: AC assay, Gsα-stimulated mAC3 in membranes from transfected HEK293 cells. To be noted: for Effect of lipid on 300 nM Gsα-stimulated mAC3: 20 µM, in words; for mAC3 activity [%] (100% = 300nM Gsα stimulation): individual experiments. The protocol: as §1, §2

A further assay has as its target T3, mAC5 (Homo sapiens, UniProt O95622).
T3 construct: Human mAC genes were from GenScript and fitted with a C-terminal FLAG-tag; FLAG (C); made in house; host or cells: HEK293, permanently transfected; membrane preparation
Nature of the assay: AC assay, Gsα-stimulated mAC5 in membranes from transfected HEK293 cells. The protocol: as §1, §2

The target of the next assay is T4, mAC4 (Homo sapiens, UniProt Q8NFM4).
T4 construct: Human mAC genes were from GenScript and fitted with a C-terminal FLAG-tag; FLAG (C); made in house; host or cells: HEK293, permanently transfected; membrane preparation
T4 sequence (Q8NFM4 1-1077): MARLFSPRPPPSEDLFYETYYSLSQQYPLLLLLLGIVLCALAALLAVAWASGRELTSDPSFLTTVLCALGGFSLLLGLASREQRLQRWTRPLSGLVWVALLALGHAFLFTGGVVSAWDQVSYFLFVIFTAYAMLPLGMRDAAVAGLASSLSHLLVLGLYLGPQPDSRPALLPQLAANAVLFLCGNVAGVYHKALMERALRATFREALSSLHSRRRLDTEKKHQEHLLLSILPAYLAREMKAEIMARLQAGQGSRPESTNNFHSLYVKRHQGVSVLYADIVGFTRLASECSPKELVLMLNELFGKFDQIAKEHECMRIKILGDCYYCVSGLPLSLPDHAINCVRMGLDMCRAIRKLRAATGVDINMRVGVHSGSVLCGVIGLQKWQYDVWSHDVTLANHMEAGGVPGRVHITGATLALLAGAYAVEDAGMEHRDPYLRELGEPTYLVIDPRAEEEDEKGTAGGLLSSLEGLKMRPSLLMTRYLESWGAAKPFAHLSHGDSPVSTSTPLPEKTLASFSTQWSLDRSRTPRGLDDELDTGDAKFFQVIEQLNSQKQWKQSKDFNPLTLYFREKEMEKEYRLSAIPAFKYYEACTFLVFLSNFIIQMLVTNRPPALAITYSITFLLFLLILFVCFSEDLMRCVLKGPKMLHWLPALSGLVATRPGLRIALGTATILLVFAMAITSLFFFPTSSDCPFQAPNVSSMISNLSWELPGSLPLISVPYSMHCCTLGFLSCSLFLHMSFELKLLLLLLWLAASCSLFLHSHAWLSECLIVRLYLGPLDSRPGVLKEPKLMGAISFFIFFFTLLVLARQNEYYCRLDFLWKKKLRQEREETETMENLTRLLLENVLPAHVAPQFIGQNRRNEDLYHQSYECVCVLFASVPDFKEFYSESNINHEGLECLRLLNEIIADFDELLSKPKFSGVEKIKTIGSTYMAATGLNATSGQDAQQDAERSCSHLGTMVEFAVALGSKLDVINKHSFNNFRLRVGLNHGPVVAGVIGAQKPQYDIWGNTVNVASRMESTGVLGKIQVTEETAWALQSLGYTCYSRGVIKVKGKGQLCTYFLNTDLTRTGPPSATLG
Briefly: AC assay, Gsα-stimulated mAC4 in membranes from transfected HEK293 cells. To be noted: 20 µM fatty acid; 300 nM Gsα; single experiments. As to the method: as §1, §2

In another assay the target is T5, mAC1 (Homo sapiens, UniProt Q08828).
T5 construct: Human mAC genes were from GenScript and fitted with a C-terminal FLAG-tag; FLAG (C); made in house; host or cells: HEK293, permanently transfected; membrane preparation
Briefly: AC assay, Gsα-stimulated mAC1 in membranes from transfected HEK293 cells. To be noted: 20 µM fatty acid; 300 nM Gsα; single experiments. The protocol: as §1, §2

A further assay concerns the target T6, mAC8 (Homo sapiens, UniProt P40145).
T6 construct: Human mAC genes were from GenScript and fitted with a C-terminal FLAG-tag; FLAG (C); made in house; host or cells: HEK293, permanently transfected; membrane preparation
Briefly: AC assay, Gsα-stimulated mAC8 in membranes from transfected HEK293 cells. To be noted: 20µM fatty acid concentration. The protocol: as §1, §2

The target in the next assay is T7, mAC6 (Homo sapiens, UniProt O43306).
T7 construct: Human mAC genes were from GenScript and fitted with a C-terminal FLAG-tag; FLAG (C); made in house; host or cells: HEK293, permanently transfected; membrane preparation
Briefly: AC assay, Gsα-stimulated mAC6 in membranes from transfected HEK293 cells. Particulars: 20µM fatty acid concentration. The protocol: as §1, §2

A further assay addresses T8, mAC7 (Homo sapiens, UniProt P51828).
T8 construct: Human mAC genes were from GenScript and fitted with a C-terminal FLAG-tag; FLAG (C); made in house; host or cells: HEK293, permanently transfected; membrane preparation
Briefly: AC assay, Gsα-stimulated mAC7 in membranes from transfected HEK293 cells. To be noted: Figure 5-figure supplement 2 left, 20 µM. The protocol: as §1, §2

The next assay addresses T9, mAC9 (Homo sapiens, UniProt O60503).
T9 construct: Human mAC genes were from GenScript and fitted with a C-terminal FLAG-tag; FLAG (C); made in house; host or cells: HEK293, permanently transfected; membrane preparation
Nature of the assay: AC assay, Gsα-stimulated mAC9 in membranes from transfected HEK293 cells. Particulars: for mAC9 activity (%);(100% = Gsα stimulation) stimulated by 300nM Gsα: single experiments. As to the method: as §1, §2

T1 sequence (Q08462 whole entry): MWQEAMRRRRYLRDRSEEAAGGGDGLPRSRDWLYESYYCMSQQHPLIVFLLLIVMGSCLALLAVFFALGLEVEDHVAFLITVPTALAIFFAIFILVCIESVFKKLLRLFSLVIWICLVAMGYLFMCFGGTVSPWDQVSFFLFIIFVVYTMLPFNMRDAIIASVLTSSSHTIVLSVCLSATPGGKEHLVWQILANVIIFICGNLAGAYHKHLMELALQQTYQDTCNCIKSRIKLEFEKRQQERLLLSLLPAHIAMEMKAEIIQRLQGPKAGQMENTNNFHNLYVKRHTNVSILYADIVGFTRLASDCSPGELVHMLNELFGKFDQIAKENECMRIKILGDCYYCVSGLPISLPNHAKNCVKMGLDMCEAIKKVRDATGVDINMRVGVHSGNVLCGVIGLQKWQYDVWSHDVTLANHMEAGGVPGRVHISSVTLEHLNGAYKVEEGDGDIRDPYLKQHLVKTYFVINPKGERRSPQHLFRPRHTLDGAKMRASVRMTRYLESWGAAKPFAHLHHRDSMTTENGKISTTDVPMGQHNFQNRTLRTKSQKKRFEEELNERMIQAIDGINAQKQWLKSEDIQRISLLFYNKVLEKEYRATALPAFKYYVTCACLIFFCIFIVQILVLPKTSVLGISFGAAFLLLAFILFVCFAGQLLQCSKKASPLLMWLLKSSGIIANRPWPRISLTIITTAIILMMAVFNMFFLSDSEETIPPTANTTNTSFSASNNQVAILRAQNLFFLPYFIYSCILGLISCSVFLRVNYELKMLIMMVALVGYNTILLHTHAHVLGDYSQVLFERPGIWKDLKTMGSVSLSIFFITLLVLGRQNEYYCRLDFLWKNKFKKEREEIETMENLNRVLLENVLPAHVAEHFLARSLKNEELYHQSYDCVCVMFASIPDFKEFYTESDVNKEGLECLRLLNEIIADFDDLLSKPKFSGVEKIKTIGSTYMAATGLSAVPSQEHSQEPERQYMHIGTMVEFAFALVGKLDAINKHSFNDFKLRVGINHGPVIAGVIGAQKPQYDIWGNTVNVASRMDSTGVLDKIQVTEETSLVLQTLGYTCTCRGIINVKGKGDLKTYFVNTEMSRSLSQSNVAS
T1 sequence (P63092 2-394 Q227L partner): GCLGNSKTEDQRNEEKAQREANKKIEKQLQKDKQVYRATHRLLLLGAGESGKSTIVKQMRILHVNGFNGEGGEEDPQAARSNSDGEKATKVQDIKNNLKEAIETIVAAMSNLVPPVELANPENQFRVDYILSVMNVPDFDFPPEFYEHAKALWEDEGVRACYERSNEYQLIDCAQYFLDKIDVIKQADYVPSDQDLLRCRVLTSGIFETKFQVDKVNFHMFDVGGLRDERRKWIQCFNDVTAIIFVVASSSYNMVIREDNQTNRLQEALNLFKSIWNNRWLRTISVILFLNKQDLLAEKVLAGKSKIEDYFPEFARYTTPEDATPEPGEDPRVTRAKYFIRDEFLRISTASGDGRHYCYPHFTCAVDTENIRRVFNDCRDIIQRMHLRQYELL
T8 sequence (P51828 whole entry): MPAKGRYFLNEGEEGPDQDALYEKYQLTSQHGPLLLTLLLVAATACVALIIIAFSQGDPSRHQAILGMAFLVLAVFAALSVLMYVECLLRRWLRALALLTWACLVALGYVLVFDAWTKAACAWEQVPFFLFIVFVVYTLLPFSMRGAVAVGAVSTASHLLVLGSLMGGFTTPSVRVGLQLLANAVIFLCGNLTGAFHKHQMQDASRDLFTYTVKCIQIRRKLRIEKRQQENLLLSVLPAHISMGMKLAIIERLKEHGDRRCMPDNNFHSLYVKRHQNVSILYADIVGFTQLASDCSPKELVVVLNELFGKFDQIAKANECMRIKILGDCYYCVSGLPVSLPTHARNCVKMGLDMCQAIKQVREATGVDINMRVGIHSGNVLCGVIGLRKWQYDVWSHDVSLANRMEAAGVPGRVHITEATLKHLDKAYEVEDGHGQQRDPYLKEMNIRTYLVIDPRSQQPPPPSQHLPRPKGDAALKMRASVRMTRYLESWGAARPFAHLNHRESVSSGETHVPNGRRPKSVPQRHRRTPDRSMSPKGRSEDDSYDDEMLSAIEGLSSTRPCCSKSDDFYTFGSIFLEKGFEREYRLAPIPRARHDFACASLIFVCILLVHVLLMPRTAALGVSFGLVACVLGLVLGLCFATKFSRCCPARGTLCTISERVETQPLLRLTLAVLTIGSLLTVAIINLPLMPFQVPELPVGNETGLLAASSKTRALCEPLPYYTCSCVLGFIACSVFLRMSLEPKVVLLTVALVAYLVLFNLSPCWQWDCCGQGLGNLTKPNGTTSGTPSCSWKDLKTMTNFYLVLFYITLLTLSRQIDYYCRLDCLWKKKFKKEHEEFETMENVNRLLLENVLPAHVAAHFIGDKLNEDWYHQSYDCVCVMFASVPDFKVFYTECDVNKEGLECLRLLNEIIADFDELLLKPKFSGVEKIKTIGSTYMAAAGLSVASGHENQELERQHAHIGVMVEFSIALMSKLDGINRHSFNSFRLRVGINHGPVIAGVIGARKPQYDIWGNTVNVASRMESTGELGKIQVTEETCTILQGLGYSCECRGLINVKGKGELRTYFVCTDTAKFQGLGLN
T8 sequence (P63092 2-394 Q227L partner): as the sequence (P63092 2-394 Q227L partner) above
T5 sequence (Q08828 whole entry): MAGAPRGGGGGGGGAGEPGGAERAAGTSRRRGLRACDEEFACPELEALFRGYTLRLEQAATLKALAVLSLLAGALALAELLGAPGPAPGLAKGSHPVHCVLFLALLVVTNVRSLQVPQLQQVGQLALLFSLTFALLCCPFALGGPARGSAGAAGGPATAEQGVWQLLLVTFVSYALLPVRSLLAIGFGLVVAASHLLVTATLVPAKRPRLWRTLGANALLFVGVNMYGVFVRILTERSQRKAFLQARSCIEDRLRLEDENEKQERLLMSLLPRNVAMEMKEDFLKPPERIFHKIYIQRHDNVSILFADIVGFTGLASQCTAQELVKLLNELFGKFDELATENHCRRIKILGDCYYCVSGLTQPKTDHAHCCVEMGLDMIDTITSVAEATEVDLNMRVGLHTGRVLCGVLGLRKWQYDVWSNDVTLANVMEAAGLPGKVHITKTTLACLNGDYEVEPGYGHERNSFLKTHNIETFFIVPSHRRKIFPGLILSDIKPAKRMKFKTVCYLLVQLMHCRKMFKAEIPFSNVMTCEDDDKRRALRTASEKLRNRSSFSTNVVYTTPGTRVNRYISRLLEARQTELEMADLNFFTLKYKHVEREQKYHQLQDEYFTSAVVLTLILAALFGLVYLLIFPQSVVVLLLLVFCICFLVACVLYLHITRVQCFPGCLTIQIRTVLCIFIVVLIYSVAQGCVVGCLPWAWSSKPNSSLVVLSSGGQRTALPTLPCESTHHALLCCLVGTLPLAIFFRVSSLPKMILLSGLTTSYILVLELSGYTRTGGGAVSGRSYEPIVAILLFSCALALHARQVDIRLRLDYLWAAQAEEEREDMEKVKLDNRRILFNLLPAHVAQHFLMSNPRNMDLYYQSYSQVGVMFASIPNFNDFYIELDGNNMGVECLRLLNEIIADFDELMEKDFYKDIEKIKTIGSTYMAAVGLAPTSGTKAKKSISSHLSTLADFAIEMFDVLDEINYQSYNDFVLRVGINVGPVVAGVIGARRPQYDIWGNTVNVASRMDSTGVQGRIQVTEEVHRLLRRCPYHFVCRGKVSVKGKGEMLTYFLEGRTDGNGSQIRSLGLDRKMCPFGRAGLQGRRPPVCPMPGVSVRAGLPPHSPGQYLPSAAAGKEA
T7 sequence (O43306 whole entry): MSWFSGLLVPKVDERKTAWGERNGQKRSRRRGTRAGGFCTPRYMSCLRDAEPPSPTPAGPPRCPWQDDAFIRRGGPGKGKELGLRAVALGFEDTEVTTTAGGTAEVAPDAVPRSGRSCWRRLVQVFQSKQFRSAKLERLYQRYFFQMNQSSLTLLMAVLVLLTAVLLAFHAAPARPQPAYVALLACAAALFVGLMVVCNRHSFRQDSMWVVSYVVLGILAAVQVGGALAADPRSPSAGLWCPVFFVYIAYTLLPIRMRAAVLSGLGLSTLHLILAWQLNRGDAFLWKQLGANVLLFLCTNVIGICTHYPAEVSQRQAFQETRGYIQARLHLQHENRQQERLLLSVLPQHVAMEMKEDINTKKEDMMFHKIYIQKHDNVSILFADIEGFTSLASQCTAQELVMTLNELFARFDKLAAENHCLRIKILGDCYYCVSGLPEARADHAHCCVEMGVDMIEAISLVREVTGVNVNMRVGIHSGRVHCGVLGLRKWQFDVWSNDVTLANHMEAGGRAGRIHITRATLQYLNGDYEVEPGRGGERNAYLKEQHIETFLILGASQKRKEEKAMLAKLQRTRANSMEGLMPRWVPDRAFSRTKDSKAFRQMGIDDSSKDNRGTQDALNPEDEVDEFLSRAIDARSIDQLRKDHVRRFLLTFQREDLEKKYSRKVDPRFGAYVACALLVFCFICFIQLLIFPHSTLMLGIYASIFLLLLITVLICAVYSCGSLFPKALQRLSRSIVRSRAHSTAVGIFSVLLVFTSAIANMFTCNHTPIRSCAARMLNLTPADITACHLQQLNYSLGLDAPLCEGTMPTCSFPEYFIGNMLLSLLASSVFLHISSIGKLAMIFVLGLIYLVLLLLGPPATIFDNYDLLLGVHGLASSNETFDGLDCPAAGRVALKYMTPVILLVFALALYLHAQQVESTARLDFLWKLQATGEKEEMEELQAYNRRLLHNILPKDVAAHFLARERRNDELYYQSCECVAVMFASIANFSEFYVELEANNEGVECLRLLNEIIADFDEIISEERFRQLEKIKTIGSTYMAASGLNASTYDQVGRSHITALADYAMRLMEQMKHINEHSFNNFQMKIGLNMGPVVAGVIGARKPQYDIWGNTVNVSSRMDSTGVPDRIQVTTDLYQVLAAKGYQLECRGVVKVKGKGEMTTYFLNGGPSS

On to `CCCCCCCC/C=C\CCCCCCCC(N)=O` [Oleamide, Oleamide ((9Z)-octadecenamide)], for which the “mAC2 activity [%] (100% = 300nM Gsα stimulation); 20µM fatty acid concentration” value on mAC2 is 133% and 84%. In addition, the “Effect of lipid on 300 nM Gsα-stimulated mAC3” value at mAC3 was “less efficacious”. Besides, the “mAC3 activity [%] (100% = 300nM Gsα stimulation)” value on mAC3 (fatty acid 20 µM) is 154% and 144% and 201% and 238% and 301% and 167% and 90% and 168%. The “mAC5 activity [%] (100% = 300nM Gsα stimulation)” value (shortened to “mAC5 activity [%]”) on mAC5 (20µM fatty acid concentration) was 97% and 111%. The “mAC4 activity [%] (100% = 300nM Gsα stimulation); 20µM fatty acid concentration” value at mAC4 was 104% and 64% and 83%. Also, the “mAC1 activity [%] (100% = 300nM Gsα stimulation); 20µM fatty acid concentration” value at mAC1 was 99% and 109%. The “mAC8 activity [%] (100% = 300nM Gsα stimulation)” value on mAC8 is 104% and 74%. The “mAC6 activity [%] (100% = 300nM Gsα stimulation)” value on mAC6 is 98% and 77%. Besides, on mAC7, the “mAC7 activity [%] (100% = 300nM Gsα stimulation); 20µM fatty acid concentration” value was 107% and 99%.
One may read the EC50 as the concentration needed to bring the measured effect to its halfway point. As for `CCCCCCCCCCCCCCCC(=O)O` [Palmitic acid, Palmitic (hexadecanoic) acid], the “mAC2 activity [%] (100% = 300nM Gsα stimulation); 20µM fatty acid concentration” value on mAC2 was 108% and 97%. The “Effect of lipid on 300 nM Gsα-stimulated mAC3” value at mAC3 is given as “less efficacious”; at mAC3 (listed as palmitic acid) it was “twofold”. The EC50 was 6.4 µM at mAC3 (enhancement of 300 nM Gsα-stimulated activity) and 8.6 µM at mAC9 (enhancement of 300 nM Gsα-stimulated activity, read-out: EC50 for mAC9). Besides, the “mAC3 activity [%] (100% = 300nM Gsα stimulation)” value was 100% on mAC3 (fatty acid 0.5 µM); 166% and 108% and 118% (2×) and 87% and 83% and 122% on mAC3 (fatty acid 1 µM); 122% and 126% and 125% and 136% and 114% and 107% and 116% on mAC3 (fatty acid 3 µM); 107% and 145% and 118% and 129% and 73% and 158% and 259% on mAC3 (fatty acid 6 µM); 188% and 338% and 172% and 339% and 112% and 94% and 165% and 197% and 126% and 128% and 237% at mAC3 (fatty acid 10 µM); 279% and 263% and 138% and 341% and 182% and 165% and 224% and 164% and 153% and 126% and 243% on mAC3 (fatty acid 20 µM). For the same molecule, the “mAC5 activity [%]” value at mAC5 (20µM fatty acid concentration) is 123% and 77% and 97%; on mAC5 (fatty acid 0.5 µM, individual experiments), 100%; at mAC5 (fatty acid 1 µM, individual experiments) it was 71% and 83% and 111%; at mAC5 (fatty acid 3 µM, individual experiments) it was 66% and 80% and 162%; at mAC5 (fatty acid 6 µM, individual experiments), 50% and 108% and 125%; on mAC5 (fatty acid 10 µM, individual experiments), 57% and 89% and 94% and 103%. Further, on mAC5 (fatty acid 20 µM, individual experiments), the “mAC5 activity [%]” value was 123% (2×) and 77% and 97%. For the same molecule, the “mAC4 activity [%] (100% = 300nM Gsα stimulation); 20µM fatty acid concentration” value on mAC4 is 76% and 92% and 77% and 101%. In addition, on mAC1, the “mAC1 activity [%] (100% = 300nM Gsα stimulation); 20µM fatty acid concentration” value is 93% and 87% and 105%. The “mAC6 activity [%] (100% = 300nM Gsα stimulation)” value at mAC6 is 91% and 114% and 61% and 106%. Moreover, the “mAC7 activity [%] (100% = 300nM Gsα stimulation); 20µM fatty acid concentration” value on mAC7 is 106% and 127% and 193% and 124%. Also, the “mAC9 activity (%);(100% = Gsα stimulation) stimulated by 300nM Gsα” value at mAC9 (10 µM fatty acid) was 258% and 146% and 141% and 173% and 189% and 161% and 157%; at mAC9 (20 µM fatty acid), 184%.
